Experiments:
mUSP18 [1] = target: T1, mUSP18 (Mus musculus, UniProt Q9WTV6); assay: High-throughput screening, ISG15ct-RhoMP, single dose 1.25 µM; assay type: biochemical, murine; conditions: crude in-plate synthesized compound, 1.25 µM assuming full conversion; read-out: %inhibition mUSP18
T1 construct: (46-368); His-tag (N); made in house
T1 sequence (Q9WTV6 46-368): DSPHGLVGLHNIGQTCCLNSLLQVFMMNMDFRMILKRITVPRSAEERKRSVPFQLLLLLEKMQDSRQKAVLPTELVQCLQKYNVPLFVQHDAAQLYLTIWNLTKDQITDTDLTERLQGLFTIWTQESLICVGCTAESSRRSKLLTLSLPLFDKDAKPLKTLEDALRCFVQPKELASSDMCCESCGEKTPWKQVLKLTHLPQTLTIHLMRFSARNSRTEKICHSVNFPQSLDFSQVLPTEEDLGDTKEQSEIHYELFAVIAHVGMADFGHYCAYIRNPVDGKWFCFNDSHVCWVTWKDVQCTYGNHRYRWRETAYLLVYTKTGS

mUSP18 [2] = target: T1, mUSP18; assay: IC50 determination, fluorogenic ISG15CT-Rho-morpholine activity assay; assay type: biochemical, murine
12 Ub(‐like) proteases = assay: High-throughput screening, whole panel of twelve enzymes; assay type: biochemical; conditions: crude mixture, 1.25 µM; enzymes other than mUSP18
Description: Since the in‐plate synthesis was conducted in 1536‐well Echo plates, the compounds could readily be transferred from these plates into 1536‐well assay plates using acoustic liquid dispensing (Figure 2a) and subjected to HTS. We screened the whole 7536 compound library against a panel of twelve enzymes, including three DUBs from the UCH family, two DUBs from the OTU family, five DUBs from the USP family, plus ISG15 protease USP18, and SUMO protease SENP1. Each compound was tested at a single dose of 1.25 µM, assuming full conversion (10 mM in DMSO of the formed products) during the in‐plate synthesis, using the fluorogenic assay described above. […] The compounds are sorted by the amine building blocks (BB1‐16), and within each BB, sorted by carboxylic acid (CA1‐471), thereby providing a comprehensive and systematic overview of the overall inhibition by each BB and CA combination. Some interesting patterns can be obtained from this map. […] Indeed, BB10 is the privileged scaffold for UCHL1 as it originates from UCHL1 inhibitor 5 (Figure 1). […]
(§1) The percentage inhibition was calculated for each well using the […]
(§2) Where FIx is the fluorescence intensity of each well, FIpos is the average fluorescence intensity of the positive (NEM) control wells, and FIneg is the average fluorescence intensity of the negative (DMSO) control wells.

USP16 = USP16 (Homo sapiens, UniProt Q9Y5T5); assay: biochemical
Description: (§3) This panel included five proteases from the USP family, two from the UCH family, and one OTU. The IC50 values were determined in a well‐established biochemical activity assay using the fluorogenic substrate Ub‐Rho‐morpholine.^[ [33] ^]
(§4) Enzymes were pre-incubated with a concentration series of the compounds for 30 minutes at
(§5) room temperature, before addition of the substrate and direct read-out by fluorescence
(§6) intensity. Data is presented as mean ± SD, n=3.
(§7) USP16 Full length N-terminal His-tag Q9Y5T5 In-house, [Mons, 2 nM
IC50 and kinact/KI determination
(§8) The assays were performed at room temperature in “nonbinding surface flat bottom low flange”
(§9) TrisꞏHCl, 100 mM NaCl, pH 7.6, 2.0 mM cysteine, 1 mg/mL 3-[(3-cholamidopropyl)-
(§10) dimethylammonio]propanesulfonic acid (CHAPS), and 0.5 mg/mL γ-globulins from bovine
(§11) blood (BGG). […] The compounds were dissolved in 10
(§12) mM DMSO stocks, and appropriate volumes were transferred to the empty plates using a
(§13) Labcyte Echo550 acoustic dispenser. A DMSO back-fill was performed to obtain equal volumes of DMSO (400 μL) in each well. N-ethylmaleimide (NEM, 10 mM) was used a positive
(§14) steps were performed on a Biotek MultiflowFX liquid dispenser. A 10 μL portion of buffer was added and the plate was vigorously shaken for 20s. Next, 5 μL of recombinant enzyme (4x final concentration) was added followed by incubation for 1h. A 5 μL portion of the substrate
(§15) (Ub-RhoMP[2] for all DUBs, ISG15ct-RhoMP (vide supra) for USP18 and Z-FR-AMC [Bachem,
(§16) RhoMP, 10 µM for Z-FR-AMC), and the increase in fluorescence over time was recorded using
(§17) excitation 360 nm, emission 450 nm for AMC). The initial enzyme velocities were calculated
(§18) from the slopes, normalized to the positive and negative controls, and plotted against the
(§19) inhibitor concentrations using the built-in equation “[inhibitor] vs response − variable slope
(§20) (four parameters), least-squares fit” with constraints “Bottom = 0” and “Top = 100” in GraphPad
(§21) Prism 7 software to obtain the IC50 values.
(§22) All data fitting and calculations were done using GraphPad Prism 7 software.

USP32 = target: T2, USP32 (Homo sapiens, UniProt Q8NFA0); assay: IC50 determination, fluorogenic Ub-Rho-morpholine activity assay; assay type: biochemical; conditions: after 30 min incubation; purified compound
T2 construct: (1-1604); His-tag (N); made in house

OTUB2 = target: T3, OTUB2 (Homo sapiens, UniProt Q96DC9); assay: biochemical
T3 sequence (Q96DC9 1-234): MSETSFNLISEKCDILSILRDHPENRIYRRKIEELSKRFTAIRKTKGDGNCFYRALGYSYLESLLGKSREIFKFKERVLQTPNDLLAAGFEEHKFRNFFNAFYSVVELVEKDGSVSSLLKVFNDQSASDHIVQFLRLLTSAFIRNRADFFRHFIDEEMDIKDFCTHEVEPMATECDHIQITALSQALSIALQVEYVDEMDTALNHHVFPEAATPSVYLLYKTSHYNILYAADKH
Description: as §3, §4, §5, §6, §7
IC50 and kinact/KI determination
as §8, §9, §10, §11, §12, §13
steps were performed on a Biotek MultiflowFX liquid dispenser. […]
as §16
excitation 360 nm, emission 450 nm for AMC). The initial enzyme velocities were calculated […]

UCHL3 = target: T4, UCHL3 (Homo sapiens, UniProt P15374); assay: IC50 determination, fluorogenic Ub-Rho-morpholine activity assay; assay type: biochemical; conditions: after 30 min incubation; purified compound
T4 construct: (1-230); made in house
T4 sequence (P15374 1-230): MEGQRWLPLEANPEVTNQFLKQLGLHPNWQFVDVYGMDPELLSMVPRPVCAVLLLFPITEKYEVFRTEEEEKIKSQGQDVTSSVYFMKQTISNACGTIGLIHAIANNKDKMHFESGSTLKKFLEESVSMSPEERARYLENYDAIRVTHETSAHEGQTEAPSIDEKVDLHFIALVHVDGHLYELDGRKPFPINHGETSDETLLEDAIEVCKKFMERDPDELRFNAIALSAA

USP30 [3] = target: T5, USP30 (Homo sapiens, UniProt Q70CQ3); assay: biochemical
T5 sequence (Q70CQ3 57-517): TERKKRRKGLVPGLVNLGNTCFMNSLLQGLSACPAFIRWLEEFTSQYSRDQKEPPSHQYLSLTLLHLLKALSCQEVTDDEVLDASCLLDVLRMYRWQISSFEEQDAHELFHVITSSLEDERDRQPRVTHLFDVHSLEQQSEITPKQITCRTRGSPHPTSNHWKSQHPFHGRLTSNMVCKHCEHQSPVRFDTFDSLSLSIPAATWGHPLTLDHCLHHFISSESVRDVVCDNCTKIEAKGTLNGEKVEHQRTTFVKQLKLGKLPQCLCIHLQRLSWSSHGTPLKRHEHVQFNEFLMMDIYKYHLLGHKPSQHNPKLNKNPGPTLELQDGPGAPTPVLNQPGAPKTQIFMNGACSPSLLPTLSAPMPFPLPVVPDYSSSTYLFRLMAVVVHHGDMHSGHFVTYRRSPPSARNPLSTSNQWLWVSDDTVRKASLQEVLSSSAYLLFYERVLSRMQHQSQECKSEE
Description: This panel included five proteases from the USP family, two from the UCH family, and one OTU. The IC50 values were determined in a well‐established biochemical activity assay using the fluorogenic substrate Ub‐Rho‐morpholine.^[ [33] ^] For USP18, which is unreactive to Ub but specific for ISG15, we used the ISG15CT‐Rho‐morpholine (consisting of the C‐terminal domain of ISG15) substrate to monitor its activity (see Supporting Information for preparation of this substrate).
as §4, §5, §6
room temperature, followed by the addition of substrate and direct read-out by fluorescence
IC50 and kinact/KI determination
as §8, §9, §10, §11, §12, §13, §14, §15, §16, §17, §18, §19, §20, §21, §22

UCHL1 = target: T6, UCHL1 (Homo sapiens, UniProt P09936); assay: IC50 determination, fluorogenic Ub-Rho-morpholine activity assay; assay type: biochemical; conditions: after 30 min incubation; purified compound
T6 construct: (1-223); made in house
T6 sequence (P09936 1-223): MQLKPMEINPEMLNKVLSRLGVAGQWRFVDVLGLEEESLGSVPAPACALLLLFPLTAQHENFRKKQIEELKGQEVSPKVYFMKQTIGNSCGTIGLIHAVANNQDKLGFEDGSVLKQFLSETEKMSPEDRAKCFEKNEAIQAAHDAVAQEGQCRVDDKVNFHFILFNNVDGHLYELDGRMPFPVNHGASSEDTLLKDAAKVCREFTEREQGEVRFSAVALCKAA

USP7 = target: T7, USP7 (Homo sapiens, UniProt Q93009); assay: as above; assay type: biochemical; conditions: after 30 min incubation; purified compound
T7 construct: (1-1102); GST (cleaved yes); made in house

USP30 [4] = target: T5, USP30; assay: High-throughput screening, Ub-RhoMP, single dose 1.25 µM; assay type: biochemical; parameters: USP30 CD (57-517); purchased Ubiquigent 64-0057-050; conditions: crude in-plate synthesized compound, 1.25 µM assuming full conversion
Description: Since the in‐plate synthesis was conducted in 1536‐well Echo plates, the compounds could readily be transferred from these plates into 1536‐well assay plates using acoustic liquid dispensing (Figure 2a) and subjected to HTS. We screened the whole 7536 compound library against a panel of twelve enzymes, including three DUBs from the UCH family, two DUBs from the OTU family, five DUBs from the USP family, plus ISG15 protease USP18, and SUMO protease SENP1. Each compound was tested at a single dose of 1.25 µM, assuming full conversion (10 mM in DMSO of the formed products) during the in‐plate synthesis, using the fluorogenic assay described above. […] The compounds are sorted by the amine building blocks (BB1‐16), and within each BB, sorted by carboxylic acid (CA1‐471), thereby providing a comprehensive and systematic overview of the overall inhibition by each BB and CA combination. Some interesting patterns can be obtained from this map. […] Indeed, BB10 is the privileged scaffold for UCHL1 as it originates from UCHL1 inhibitor 5 (Figure 1). […] On the other hand, OTUD1 and USP32 show a much higher hit rate, and this is even more pronounced for USP30 and ISG15 protease mUSP18, each showing many active compounds distributed over several BB's.
Purified recombinant enzymes used in this study
High-throughput screening
The screens were performed at room temperature in “flat bottom, non-treated, black […]
µM. The compounds (10 nL each) were transferred from the 1 mM daughter plates to the […]
Four wells containing DMSO
(10 nL) and four wells containing NEM (10 mM final concentration) were used in each plate […]
solution (1.33x final concentration) was added to each well, followed by incubation for 30 min.
Next, 2 µL of a substrate solution (4x final concentration) was added to each well (Ub-RhoMP[2]
After 1h or 2h incubation the
as §1, §2

T2 sequence (Q8NFA0 whole entry): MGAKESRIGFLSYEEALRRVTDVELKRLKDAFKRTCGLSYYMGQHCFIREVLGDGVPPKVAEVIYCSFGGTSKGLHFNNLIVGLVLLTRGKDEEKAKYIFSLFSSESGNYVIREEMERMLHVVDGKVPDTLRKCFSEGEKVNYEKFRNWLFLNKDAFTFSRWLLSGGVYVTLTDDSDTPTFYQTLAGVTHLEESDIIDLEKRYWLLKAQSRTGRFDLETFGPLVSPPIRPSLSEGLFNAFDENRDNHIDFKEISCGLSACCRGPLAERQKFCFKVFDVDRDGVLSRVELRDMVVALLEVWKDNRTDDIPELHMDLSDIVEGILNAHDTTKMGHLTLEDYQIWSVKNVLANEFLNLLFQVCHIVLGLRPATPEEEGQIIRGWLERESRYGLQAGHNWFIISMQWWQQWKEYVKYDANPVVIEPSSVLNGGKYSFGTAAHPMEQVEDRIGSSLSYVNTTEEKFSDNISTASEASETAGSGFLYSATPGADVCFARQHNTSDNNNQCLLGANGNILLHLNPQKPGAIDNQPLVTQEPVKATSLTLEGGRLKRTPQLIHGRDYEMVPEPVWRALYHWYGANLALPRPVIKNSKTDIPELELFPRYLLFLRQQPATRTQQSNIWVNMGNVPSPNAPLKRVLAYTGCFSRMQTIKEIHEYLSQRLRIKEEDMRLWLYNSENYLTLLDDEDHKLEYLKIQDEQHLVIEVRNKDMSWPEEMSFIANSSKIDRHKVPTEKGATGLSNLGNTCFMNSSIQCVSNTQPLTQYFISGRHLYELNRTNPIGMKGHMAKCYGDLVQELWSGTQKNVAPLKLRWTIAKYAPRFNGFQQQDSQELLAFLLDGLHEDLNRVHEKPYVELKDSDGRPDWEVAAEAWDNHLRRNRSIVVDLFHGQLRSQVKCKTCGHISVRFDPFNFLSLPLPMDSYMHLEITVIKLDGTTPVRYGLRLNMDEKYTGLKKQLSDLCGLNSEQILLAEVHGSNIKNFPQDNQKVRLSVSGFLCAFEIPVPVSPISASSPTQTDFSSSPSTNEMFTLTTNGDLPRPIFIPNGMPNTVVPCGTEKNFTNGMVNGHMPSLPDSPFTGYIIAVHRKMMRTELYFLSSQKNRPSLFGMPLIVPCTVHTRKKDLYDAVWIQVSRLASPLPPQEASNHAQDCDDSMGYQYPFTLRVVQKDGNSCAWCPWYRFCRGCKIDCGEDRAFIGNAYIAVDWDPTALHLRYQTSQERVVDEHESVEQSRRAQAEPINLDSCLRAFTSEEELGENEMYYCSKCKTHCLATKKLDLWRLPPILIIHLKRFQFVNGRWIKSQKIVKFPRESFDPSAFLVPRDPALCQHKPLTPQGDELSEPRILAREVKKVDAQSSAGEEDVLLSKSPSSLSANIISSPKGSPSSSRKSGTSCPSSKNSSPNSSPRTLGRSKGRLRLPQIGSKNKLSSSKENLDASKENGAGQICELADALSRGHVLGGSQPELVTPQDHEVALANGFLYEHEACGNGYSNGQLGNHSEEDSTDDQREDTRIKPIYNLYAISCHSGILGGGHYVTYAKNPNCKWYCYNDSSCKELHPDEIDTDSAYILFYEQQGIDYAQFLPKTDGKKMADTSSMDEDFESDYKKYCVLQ
USP16, sequence (Q9Y5T5 22-823): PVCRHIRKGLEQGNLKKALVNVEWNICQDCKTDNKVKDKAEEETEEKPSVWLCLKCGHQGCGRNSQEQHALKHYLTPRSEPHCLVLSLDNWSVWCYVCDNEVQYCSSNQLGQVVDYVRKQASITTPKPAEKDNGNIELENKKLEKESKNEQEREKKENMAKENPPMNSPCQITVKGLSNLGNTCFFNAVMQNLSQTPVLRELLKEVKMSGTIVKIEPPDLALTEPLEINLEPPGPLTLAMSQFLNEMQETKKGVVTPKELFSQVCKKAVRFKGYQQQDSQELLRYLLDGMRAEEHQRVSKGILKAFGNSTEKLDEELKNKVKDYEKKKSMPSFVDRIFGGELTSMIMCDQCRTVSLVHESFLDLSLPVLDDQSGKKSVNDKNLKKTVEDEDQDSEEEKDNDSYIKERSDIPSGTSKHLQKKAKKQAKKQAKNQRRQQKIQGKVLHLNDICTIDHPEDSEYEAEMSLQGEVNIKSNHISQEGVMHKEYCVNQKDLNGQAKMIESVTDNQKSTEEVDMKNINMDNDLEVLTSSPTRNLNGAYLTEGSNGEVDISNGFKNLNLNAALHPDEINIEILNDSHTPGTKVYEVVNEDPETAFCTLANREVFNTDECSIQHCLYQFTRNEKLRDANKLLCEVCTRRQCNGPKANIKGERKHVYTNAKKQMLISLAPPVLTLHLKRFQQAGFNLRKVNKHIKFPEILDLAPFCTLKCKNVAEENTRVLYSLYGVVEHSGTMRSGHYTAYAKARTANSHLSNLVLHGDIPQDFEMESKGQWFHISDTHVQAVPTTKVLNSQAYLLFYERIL
T7 sequence (Q93009 whole entry): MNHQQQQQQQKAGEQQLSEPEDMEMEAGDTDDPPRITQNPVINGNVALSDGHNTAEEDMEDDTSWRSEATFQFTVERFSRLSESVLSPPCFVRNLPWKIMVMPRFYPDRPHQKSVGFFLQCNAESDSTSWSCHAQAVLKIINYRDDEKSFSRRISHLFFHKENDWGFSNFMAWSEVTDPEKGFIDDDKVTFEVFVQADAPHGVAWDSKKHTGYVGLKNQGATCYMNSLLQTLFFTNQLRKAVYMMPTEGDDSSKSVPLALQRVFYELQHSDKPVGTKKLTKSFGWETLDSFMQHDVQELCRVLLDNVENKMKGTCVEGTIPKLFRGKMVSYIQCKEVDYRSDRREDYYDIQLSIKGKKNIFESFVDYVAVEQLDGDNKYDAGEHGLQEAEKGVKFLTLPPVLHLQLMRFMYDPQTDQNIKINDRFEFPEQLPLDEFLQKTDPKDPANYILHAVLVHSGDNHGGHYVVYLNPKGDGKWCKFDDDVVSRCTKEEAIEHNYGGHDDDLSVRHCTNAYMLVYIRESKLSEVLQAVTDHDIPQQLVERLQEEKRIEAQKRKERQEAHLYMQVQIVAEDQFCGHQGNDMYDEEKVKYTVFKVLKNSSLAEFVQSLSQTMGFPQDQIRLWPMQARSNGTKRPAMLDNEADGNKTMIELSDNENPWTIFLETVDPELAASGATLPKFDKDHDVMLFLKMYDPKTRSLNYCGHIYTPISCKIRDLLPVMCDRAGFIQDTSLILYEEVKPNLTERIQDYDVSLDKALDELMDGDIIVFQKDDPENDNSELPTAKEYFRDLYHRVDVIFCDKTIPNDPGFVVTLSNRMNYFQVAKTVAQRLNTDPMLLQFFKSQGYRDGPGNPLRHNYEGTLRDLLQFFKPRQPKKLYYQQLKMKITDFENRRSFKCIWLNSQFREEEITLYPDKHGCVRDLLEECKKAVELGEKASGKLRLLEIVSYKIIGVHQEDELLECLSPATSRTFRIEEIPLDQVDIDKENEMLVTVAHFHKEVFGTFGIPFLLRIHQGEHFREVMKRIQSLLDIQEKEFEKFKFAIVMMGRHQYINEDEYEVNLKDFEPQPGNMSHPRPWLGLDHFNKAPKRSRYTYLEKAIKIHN

Row | inhibition at 1.25 µM (mUSP18 [1]) [%] | IC50 (mUSP18 [2]; pure (re-synthesized) compound, mean ± SD n = 3) [µM] | inhibition of all other enzymes tested (12 Ub(‐like) proteases) | IC50 (USP16) [µM] | IC50 (USP32) [µM] | IC50 (OTUB2) [µM] | IC50 (UCHL3) [µM] | IC50 (USP30 [3]) [µM] | IC50 (UCHL1) [µM] | IC50 (mUSP18 [2]; after 30 min incubation, purified compound, ISG15CT-Rho-morpholine substrate) [µM] | IC50 (USP7) [µM] | %inhibition USP30 (USP30 [4]) [%] | SMILES
1 | 75 | 0.24 ± 0.0099 | negligible inhibition | – | – | – | – | – | – | – | – | – | N#CN1C[C@H]2C[C@H](NC(=O)CCC3CCCCC3)C[C@H]2C1 [BB07CA48]
2 | ~90 | – | – | 5.1 | 0.53 | > 200 | 229 | 0.043 | 54 | 0.079 | 42 | ~90 | N#CN1CC[C@@H](NC(=O)c2cc(-c3cccc(Cl)c3)no2)C1 [Compound 1]
